Test results taken from patent US20050153870A1, “Medicinal composition for diagnosis, prevention, or therapy of multiple risk factor syndrome” (priority 2002, published 2005).
Marks after values point to notes of the source that are not given here.

How the values were obtained:
[1] = test system: Db/db mouse, Zucker rat; experiment: Insulin sensitivity test; format: in vivo; conditions: feed containing 0.1% for one week, hereditary obese animal
[2] = test system: C57BL/Ksj-db/db mice; experiment: AS-6 in feed to db/db mice (Example 4); format: in vivo, mouse; conditions: 0.1% in feed, 1 week
Description: C57BL/Ksj-db/db mice, which were model animals of multiple risk factor syndrome, were raised for a week with powered feed containing an ascochlorin derivative, 4-O-carboxymethylascochlorin (AS-6), in a content of 0.1%. Thereafter, the weight, blood sugar, blood insulin, and blood neutral fat were measured.

[3] = test system: Zucker rats; experiment: Glucose tolerance test using Zucker rats (Example 6); format: in vivo, rat
Description: The effect of 4-O-carboxymethylascochlorin (AS-6) in a glucose tolerance test were checked by using Zucker rats. Zucker control rats, Zucker AS-6 administered rats (20 mg/kg, perorally for a week), and Lean control rats were fasted overnight. Next morning, blood was taken from the caudal vein, and thereafter, 2 g/kg of glucose was perorally administered. Blood was taken from the caudal vein 30, 60 and 120 minutes after the administration and checked for blood sugar (7 mice/group).

[4] = Zucker rats, 20 mg/kg perorally for a week

Compound: CC(C=CC1(C)C(C)CCC(=O)C1C)=CCc1c(O)c(C=O)c(C)c(Cl)c1OCC(=O)O (stereo not drawn) [AS-6, 4-O-carboxymethylascochlorin]
- sensitivity to insulin [1]: insulin was significantly improved.
- Blood sugar, change vs db/db control group [2]: −30.0%**
- Body weight, change vs db/db control group [2]: ns
- Cholesterol, change vs db/db control group [2]: ns
- Free fatty acid, change vs db/db control group [2]: −21.1%**
- Insulin, change vs db/db control group [2]: ns
- Neutral fat, change vs db/db control group [2]: −38.3%**
- Free fatty acid ([2]; db/db control 1.164 ± 0.03): 0.918 ± 0.1 mEq/L
- Insulin ([2]; db/db control 31.0 ± 3.6): 34.6 ± 3.5 μU/mL
- Body weight ([2]; db/db control 52.9 ± 0.8): 56.3 ± 1.2 g
- Cholesterol ([2]; db/db control 109.9 ± 3.3): 114.4 ± 4.3 mg/dL
- Neutral fat ([2]; db/db control 378.5 ± 19.3): 223.5 ± 17.7 mg/dL
- blood sugar ([2]; db/db control 637.3 ± 28.9): 445.8 ± 32.5 mg/dL
- blood sugar, blood free fatty acid, and blood neutral fat ([2]; db/db mice): significantly reduced
- blood sugar, change vs Zucker control group ([3]; 0 minute after glucose loading): −19.7%(*)
- blood sugar ([3]; 20 mg/kg perorally for a week, 0 minute after glucose loading (fasted overnight), Zucker control 107.5 ± 5.0): 86.3 ± 4.5
- blood sugar ([3]; 20 mg/kg perorally for a week, 30 minutes after glucose loading, Zucker control 235.1 ± 9.6): 167.5 ± 3.8
- blood sugar ([3]; 20 mg/kg perorally for a week, 60 minutes after glucose loading, Zucker control 275.8 ± 13.2): 220.2 ± 5.0
- blood sugar ([3]; 20 mg/kg perorally for a week, 120 minutes after glucose loading, Zucker control 290.3 ± 4.6): 202.8 ± 3.6
- blood sugar, change vs Zucker control group ([3]; 30 minutes after glucose loading): −28.8%(**)
- blood sugar, change vs Zucker control group ([3]; 60 minutes after glucose loading): −20.2%(*)
- blood sugar, change vs Zucker control group ([3]; 120 minutes after glucose loading): −30.1%(**)
- blood sugar level 30, 60, 120 minutes after glucose loading [3, 4]: significant decreases
- decrease of fasting blood sugar level [3, 4]: 19.7%
